The text below walks through data of patent publication US10577322B2, “5-methoxytryptophan and its derivatives and uses thereof” (National Health Research Institutes, priority 2015, dated 2020).

The subject of assay [1] is BT474 breast cancer cells. Briefly: Transwell cell migration assay, BT474. The format is cell-based. The following applies: 30 min pretreatment, PMA 4 h or 24 h. On the procedure:
(§1) Briefly, cells (10^4/well) were seeded on the upper chamber (6.5-mm insert, 8-μm polycarbonate membrane; Corning Inc.), which was placed in each well of a 24-well plate. The lower chamber was filled with 700 μL DMEM supplemented with 10% FBS. For assessment of in vitro invasion, cells were seeded onto the upper chamber insert coated with Matrigel (BD Biosciences) under the same conditions as the transwell migration assays. At the indicated time, nonmigrated cells that remained at the top surface of the insert were removed with a cotton swab. Cells that migrated to the lower membrane surface and cells that invaded through the matrigel gel to the underside of the membrane were fixed, stained with 0.1% crystal violet for 20 min, and counted under light microscopy. All of the assays were done in triplicate with excellent reproducibility.
(§2) Lung cancer A549 and breast cancers BT474 and T47D cells were pretreated with different concentrations of 5-MTP or 5-MTPE for 30 min, then stimulated with PMA for 4 h or 24 h. Cell migration was measured by the transwell migration assay.

The subject of a further assay is A549 lung cancer cells. Briefly: Transwell cell migration assay, A549. The format is cell-based. The following applies: 30 min pretreatment, PMA 4 h or 24 h. As for the experimental part:
as §1, §2

For the next assay, the system named is LPS-induced endotoxemia. The assay is classed as in vivo. As for the experimental part:
C57BL/6 mice (6-8 wks old) were treated intraperitoneally with saline or with different concentrations of 5-MTP (23.4 or 100 mg/kg) for 30 min before intraperitoneal administration of LPS (60 mg/kg). Animals were monitored for survival and other clinical signs including ruffled fur, lethargy, diarrhea, and body weight loss. Some animals were sacrificed at different times after LPS injection. Blood samples, peritoneal exudates, lungs, and spleens were collected. All mouse experiments were approved by the institutional Animal Care and Use Committee, National Health Research Institutes.
Since suppression of 5-MTP by endotoxemia could contribute to uncontrolled macrophage overproduction of proinflammatory cytokines and mediators, we determined whether exogenous 5-MTP administration rescues mice from LPS-induced systemic inflammation, organ damage and mortality. Mice were injected with saline, 5-MTP (23.4 mg/kg), 5-MTPE (25 mg/kg) or vehicle for 30 min, followed by LPS (60 mg/kg) (saline, n=25; 5-MTP, n=7; 5-MTPE, n=7; LPS, n=30; LPS+5-MTP, n=25; LPS+5-MTPE, n=25). Survival was monitored during the next 72 h. *P<0.001 compared to LPS treatment.

For a further assay, the system named is IL-6. Description: LPS-induced IL-6 level in RAW264.7 culture supernatants (ELISA). The assay is classed as cell-based, mouse. The following applies: RAW264.7 cells; for LPS-induced IL-6 level in culture supernatants: 30 min pretreatment, LPS 24 h. As for the experimental part: Mouse RAW264.7 macrophages were from the American Type Culture Collection and cultured in DMEM containing 10% FBS. […] The duration of LPS (100 ng/ml) treatment varied depending on the experiment.
Moreover, RAW264.7 cells and IL-6 promoter-luciferase plasmid transfected RAW264.7 cells were pretreated with different concentrations of 5-MTP for 30 min, followed by LPS stimulation for 8 h. IL-6 promoter activity was measured by luciferase assay. IL-6 level in culture supernatants was measured by ELISA.
Furthermore, RAW264.7 cells were treated with different concentrations of 5-MTP or 5-MTPE for 24 h. Cell viability was determined by MTT assay. In another experiment, after pretreating RAW264.7 cells with different concentrations of 5-MTP or 5-MTPE for 30 min, cells were stimulated with LPS for 24 h. IL-6 level in culture supernatants was measured by ELISA.
Herein, after pretreating RAW264.7 cells with different concentrations of 5-MTP, 5-MTPE, COX-2 inhibitors (NSC398 or SC560) and NF-κB inhibitor JSH-23 for 30 min, cells were stimulated with LPS. In addition, RAW264.7 cells were also transfected with COX-2 promoter-luciferase plasmid. After 24 h transfection, the cells were incubated with LPS for 8 h. Luciferase activity as measured.
In general terms: An ELISA detects its analyte on a solid surface through an enzyme-linked reagent.

The next assay relates to atherosclerotic lesions. Briefly: Lipid accumulation and atherosclerotic lesions in ApoE-deficient mice on high fat diet. The assay is classed as in vivo. The following applies: 23.5 mg/kg 3 times a week i.p., 8 weeks. On the procedure:
ApoE-deficient mice at 6 weeks were placed on a Western high fat diet containing 1.25% cholesterol and 21% fat (Research. Diets). The mice were simultaneously treated with vehicle (PBS), 5-MTP or 5-MTPE (23.4 mg/kg body weight, 3 times a week) by intraperitoneal injection. After 8 weeks, the aortic trees were dissected and lesions examined in the aortic arch and its branches. The aortas were carefully freed of connective and adipose tissue under a dissection microscope, opened longitudinally and stained with Oil red 0.
Since reduction of serum 5-MTP in CAD patients may be associated with the development of vascular disease, we determined whether exogenous 5-MTP derivatives exert protective effect in the development of atherosclerosis. ApoE-deficient mice were fed a Western high fat diet containing 1.25% cholesterol and 21% fat (Research Diets) starting at 6 weeks of age. The mice were simultaneously treated with vehicle (PBS), 5-MTP or 5-MTPE (23.5 mg/kg body weight, 3 times a week) by intraperitoneal injection. After 8 weeks, the aortic trees were dissected and lesions examined in the aortic arch and its branches.

In the next assay the test system is A549 subcutaneous tumor. Briefly: Tumor xenograft experiment (A549 s.c. in SCID mice). The format is in vivo. The conditions noted are these: 100 mg/kg intraperitoneal twice weekly; for subcutaneous tumor volume: 7 weeks. On the procedure:
Six-week-old male CB-17 SCID mice, purchased from BioLASCO, were housed in a daily cycle of 12-h light and 12-h darkness and pathogen-free conditions at 26° C. at the Animal Center of the National Health Research Institutes. A549-luc-C8 cells (Caliper Life Sciences), cultured in RPMI-1640 supplemented with 10% FBS, were pretreated with 100 μM 5-MTP, 100 μM 5-MTPE or vehicle for 5 h and were inoculated into the flank of mice subcutaneously (s.c.) (5×10^6 cells/mouse). The 5-MTP-, or 5-MTPE-treated mice (n=10) were injected with 100 mg 5-MTP or 5-MTPE /kg body weight intraperitoneally twice weekly. The vehicle group (n=10) was injected with vehicle (0.033 N HCl in RPMI medium, neutralized with NaOH) twice weekly. The size of s.c. tumors were caliper-measured twice weekly. The tumor volume was calculated according to the formula of length×width×width/2. The tumor growth was also monitored weekly by an IVIS spectrum imaging system. Mice were euthanized at day 52. Subcutaneous tumors and lungs were removed and fixed with 10% Formalin. Nodules on each lobe of the lungs were counted. Histology of the nodules was examined under microscopy by tissue section and H&E staining. The animals' care was in accordance with institutional guidelines and the protocol of in vivo experiments was approved by the Institutional Animal Care and Utilization Committee of the National Health Research Institutes.
In addition, A549 (5×10^6 cells) was injected subcutaneously into the flank of SCID-Beige mice. 10 mice each received intraperitoneal injection of 5-MTP (100 mg/kg), 5-MTPE (100 mg/kg) or vehicle twice weekly. Caliper measurement of the subcutaneous tumor volume periodically for 7 weeks. […] The average tumor volume at 7-week in the 5-MTP treated group was ˜50% of that in the control group.

Setting [2] is: 5-MTP 23.4 mg/kg 30 min before LPS 60 mg/kg.

For `COc1ccc2[nH]cc(C[C@H](N)C(=O)O)c2c1` [5-MTP, 5-methoxytryptophan], in assay [1], the “PMA-induced BT474 cell migration” value is “abrogated”. Further, the “PMA-induced A549 cell migration” value with A549 lung cancer cells is reported as “abrogated”. In the assay with LPS-induced endotoxemia (setting [2]), the “endotoxemic mice died at day 3” value was determined as 20% and the “mice died at day 1” value is recorded as “none”. The “LPS-induced IL-6 level in culture supernatants” value in the assay with IL-6 is listed as “dose-dependently blocked”. The “LPS-induced IL-6 protein expression” value in the assay on IL-6 (LPS 8 h) is recorded as “inhibited”. For the same molecule, the “lipid accumulation in the arteries” value in the assay on atherosclerotic lesions (ApoE-deficient mice) was “less lipid accumulation”. Further, in the assay with A549 subcutaneous tumor, the “average tumor volume at 7-week, of that in the control group” value is ~50% and the subcutaneous tumor volume entry is “suppressed tumor volume in a time-dependent manner”.
With `COC(=O)C(N)Cc1c[nH]c2ccc(OC)cc12` (stereo not drawn) [5-MTPE, ester-5-MTP], the “PMA-induced BT474 cell migration” value in assay [1] is “abrogated”. Besides, the “PMA-induced A549 cell migration” value in the assay with A549 lung cancer cells is “abrogated”. In the assay with LPS-induced endotoxemia (5-MTPE 25 mg/kg 30 min before LPS 60 mg/kg, 72 h), the “protective capacity in LPS-induced lethal endotoxemia” value is given as 100%. Moreover, the “LPS-induced IL-6 level in culture supernatants” value in the assay on IL-6 is given as “significantly inhibited”; with IL-6 (listed as 5MTPE), “dose-dependently blocked”. Moreover, the “suppressive capacity on IL-6 production in comparison with 5-MTP, COX-2 inhibitors” value in the assay with IL-6 (24 h after LPS) is recorded as “better suppressive capacity”. Besides, in the assay on IL-6 (LPS), the “IL-6 suppressive activity compared with JSH-23” value was “potent than that of NF-κB inhibitor JSH-23”. The “lipid accumulation in atherosclerotic lesions (Oil red O)” value in the assay on atherosclerotic lesions was “suppressed lipid accumulation”. For the same molecule, the subcutaneous tumor volume entry in the assay with A549 subcutaneous tumor was “suppressed tumor volume in a time-dependent manner”.
